Results taken from publication PMC9820444, “Design and Synthesis of Acridine-Triazole and Acridine-Thiadiazole Derivatives and Their Inhibitory Effect against Cancer Cells” (International Journal of Molecular Sciences, 2022).

Columns and labels:
[1] = system: hepatocellular carcinoma bel-7404 (BEL-7404); assay: MTT antiproliferative assay, BEL-7404; assay type: cell-based, human; details: Homo sapiens, read-out: Effect against cell viability (IC50), BEL-7404
[2] = system: large cell lung cancer cells (NCI-H460); assay: MTT antiproliferative assay, NCI-H460; assay type: cell-based, human; details: Homo sapiens, read-out: Effect against cell viability (IC50), NCI-H460
[3] = system: human normal liver cells (LO2); assay: Cytotoxicity against normal liver cells LO2; assay type: cell-based; details: Homo sapiens, MTT, read-out: Effect against cell viability (IC50), LO2
MGC80-3 cells = assay: Apoptosis by Annexin V-FITC/PI flow cytometry, MGC80-3; assay type: cell-based, human; details: control 0.586%
Procedure: The apoptosis ratios of MGC80-3 or T24 cell lines induced by the selected compounds at the concentration of IC50 and 0.5 IC50 were quantitatively determined by flow cytometry. Four quadrant images (Q1, Q2, Q3 and Q4) were observed by flow cytometric analysis. […] […] After treatment with compound 6h, 5.62% (3.43 μM) and 14.25% (6.85 μM) of the cells were apoptotic. These were higher percentages than the one observed in the control (0.586%). […] The results evidently illustrate that representative compounds 5d and 6h or 4h and 6h could suppress cell proliferation by inducing apoptosis in the early apoptotic period.
The apoptosis assay and the cell cycle analysis were carried out by cytometry (FACSVerse, BD, Piscataway, NJ, USA) at an excitation wavelength of 488 nm according to the method described in the literature with slight modifications. The cells were seeded at 2 × 10^6/well and washed by cold PBS. The buffer solutions were prepared using 0.1 M pH 7.4 Hepes/NaOH, 1.4 M NaCl, and 25 mM CaCl2.

[4] = molecular target: T1, DNA topoisomerase I (topo I) (Bos taurus, UniProt F1MN93); assay: Topo I inhibitory activity (pBR322); assay type: biochemical; details: at 100 µM
T1 construct: purchased Takara Bio Inc. (Shiga, Japan)
T1 sequence (F1MN93 1-767): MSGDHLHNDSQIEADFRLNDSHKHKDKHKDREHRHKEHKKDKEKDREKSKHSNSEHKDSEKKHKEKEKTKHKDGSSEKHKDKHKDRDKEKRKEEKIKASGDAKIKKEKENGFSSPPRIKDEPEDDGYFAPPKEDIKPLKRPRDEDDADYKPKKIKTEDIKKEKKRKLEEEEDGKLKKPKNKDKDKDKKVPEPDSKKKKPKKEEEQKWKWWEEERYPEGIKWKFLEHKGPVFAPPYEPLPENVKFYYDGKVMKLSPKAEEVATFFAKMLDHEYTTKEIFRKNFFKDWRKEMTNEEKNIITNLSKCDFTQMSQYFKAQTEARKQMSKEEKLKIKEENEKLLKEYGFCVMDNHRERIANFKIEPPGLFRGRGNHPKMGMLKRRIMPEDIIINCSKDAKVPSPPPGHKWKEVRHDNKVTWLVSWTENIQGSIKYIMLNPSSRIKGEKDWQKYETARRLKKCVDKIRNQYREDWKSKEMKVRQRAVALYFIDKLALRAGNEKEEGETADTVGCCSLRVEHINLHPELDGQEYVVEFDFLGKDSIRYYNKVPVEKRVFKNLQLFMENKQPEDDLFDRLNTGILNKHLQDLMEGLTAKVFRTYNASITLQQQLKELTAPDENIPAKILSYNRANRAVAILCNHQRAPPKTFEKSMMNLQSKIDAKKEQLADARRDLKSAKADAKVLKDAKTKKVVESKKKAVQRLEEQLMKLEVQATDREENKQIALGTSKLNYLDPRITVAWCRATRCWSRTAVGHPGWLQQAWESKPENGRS

[5] = system: subintestinal veins (SIVs) in zebrafish embryos; assay: Zebrafish angiogenesis assay (subintestinal veins, NBT/BCIP staining); assay type: in vivo; details: zebrafish embryos, 1 mg/mL, compared with blank control group
Description: Currently, the zebrafish has emerged as a valuable model organism to substitute traditional models for studying angiogenesis inhibitors. The genes of zebrafish show 70–80% similarity to humans, and the vascular structure of zebrafish has high similarity to that of other vertebrates. Therefore, the subintestinal veins (SIVs) in the zebrafish embryos are used as evaluation indicators for anti-angiogenesis inhibitors. In this study, NBT/BCIP vascular staining was used to observe the angiogenesis effect of representative drugs (4h, 4f, 5d, 5h, 6g and 6h) in a zebrafish model. […] Compared with the blank control group, the area of the meshed pattern vessel and the number of vascular branches in the network decreased after the administration of compounds 4h, 5d, 5h and 6h.
The 24 hpf zebrafish embryos were dechorionated with a 1 gL^−1 pronase treatment and maintained in distilled water in 12-well cell culture plates (each well contained 20 embryos). A negative control group containing zebrafish embryos in distilled water and a vehicle treatment group that was treated with 2% dimethyl sulfoxide (DMSO) were prepared. The anti-angiogenic compounds were diluted to 1 mg/mL. After incubating at 28 °C for […], the embryos were immersed in 4% paraformaldehyde and dehydrated by gradient ethanol. Subsequently, the embryos were balanced in NTMT buffer (5 M NaCl + 1 M Tris [pH 9.0–9.5] + 1 M MgCl2+ 10% Tween), and nitrotetrazolium blue chloride (NBT) and p-toluidine salt (BCIP) staining were performed. To evaluate the effect of compounds on the angiogenesis of zebrafish embryos, the growth of embryonic sub-intestinal veins (SIVs) at 72 hpf was observed using an IX71 Olympus microscope (Hamburger, Germany). The length of the SIVs was calculated using the image J 1.8.0 software (Bethesda, MD, USA).

With `COc1ccc(-c2nnc(N=C3c4ccccc4NC4C=CC(C)=CC34)s2)cc1` (stereo not shown) [6h, 7-methyl-N-(5-(4-methoxyphenyl)-1,3,4-thiadiazol-2-yl)-10,10a-dihydroacridin-9(8aH)-imine] the IC50 [1] was 20.2 ± 1.59 µM, the IC50 [2] was 13.3 ± 1.39 µM and the IC50 [3] was 43.8 ± 2.63 µM. For the same compound, the “apoptosis percentage (early and late)” value (MGC80-3 cells; MGC80-3, 0.5 IC50 (5d 2.76 μM; 6h 3.43 μM)) was 5.62%, the “apoptosis percentage (early and late)” value (MGC80-3 cells; MGC80-3, IC50 (5d 5.52 μM; 6h 6.85 μM)) was 14.25% and the “topo I inhibitory activity” value [4] was “potent”. The “area of the meshed pattern vessel and number of vascular branches in the network” value [5] was “decreased”.
